Results as given in patent US20230270721A1, “INHIBITION OF BAX-MEDIATED CELL DEATH BY ELTROMBOPAG” (Albert Einstein College of Medicine, priority 2020, published 2023).
Where two headings read alike, the source gives them in different places.

How the values were obtained:
3T3 cells = assay: Cell viability assay (CellTiter-Glo), ABT-263 + S63845; type: cell-based, murine; details: 1 µM ABT-263 and 1 µM S63845, 24 hr
Procedure: 3T3 cells were maintained in media identical to that of MEFs. 3T3 cells were seeded (1×10^4 cells/well) in 96-well opaque plates for 18-24 hr. The media was removed and replaced with media lacking FBS, and cells were treated with EO as a 10X stock in H2O at the indicated doses for 2 hr before addition of 10% FBS. Cells were then treated with 1 µM each of ABT-263 and S63845. Caspase 3/7 activation was measured at 4 hr by addition of the Caspase-Glo 3/7 chemiluminescence reagent in accordance with the manufacturer’s protocol (Promega). Luminescence was detected by an F200 PRO microplate reader (TECAN). Percentage caspase activation was normalized to ABT-263 + S63845 alone (100%) and untreated cells (0%). Viability assays were performed at 24 hr by addition of CellTiter-Glo according to the manufacturer’s protocol (Promega). Luminescence was detected by an F200 PRO microplate reader (TECAN). Percentage viability was normalized to untreated cells (100%).
Next, whether EO is capable of rescuing cell death in cells expressing both BAX and BAK was determined. 3T3 cells, a murine fibroblast cell line, were treated with a combination of BH3-mimetics navitoclax (ABT-263) and S63845, which only in combination cause significant cytotoxicity in fibroblast cells.

BAX R134E = molecular target: T1, BAX R134E (Homo sapiens, UniProt Q07812, R134E); assay: Liposomal permeabilization assay, trigger site mutant R134E; type: biochemical; details: 250 nM BAX and 5 nM tBID
T1 construct: Human full-length (1-192) wild-type BAX (Q07812); made in house; host or cells: E. coli BL21 (DE3) CodonPlus (DE3)-RIPL
Procedure: Lipids (Avanti Polar Lipids) at the following ratio, phosphatidylcholine 48%, phosphatidylinositol 10%, dioleoyl phosphatidylserine 10%, phosphatidylethanolamine, 28%, and tetraoleoyl cardiolipin 4%, were mixed in a total of 1 mg, dried and resuspended in 10 mM HEPES, pH 7, 200 mM KCI, and 5 mM MgCl2 with 12.5 mM 8-aminonaphthalene-1,3,6-trisulfonic acid (ANTS) dye and 45 mM p-xylene-bis-pyridinium bromide (DPX) quencher (Molecular Probes) using a water bath sonicator. Liposomes were formed by extrusion of the suspension using Avanti Mini-Extruder (Cat # 610000) with polycarbonate membranes of 0.1 µm pore size (Avanti Polar Lipids). […] ANTS/DPX release was quantified based on the increase in fluorescence intensity that occurs when the ANTS fluorophore is separated from the DPX quencher upon release from the liposomes into solution. Fluorescence (λex = 355 nm and λem = 520 nm) was measured at 1 minute intervals at room temperature (22-25° C.) indicated using a Tecan Infinite M1000 plate reader. In the case of heat activation, reactions were set up as described in the absence of tBID or BIM, and experiments were recorded at 42° C. The percentage release of ANTS/DPX at any given time point was calculated as percentage release=((F-F0)/(F100-F0))(100), where F0 and F100 are baseline and maximal fluorescence, respectively. […]

BAX = molecular target: T2, BAX (Homo sapiens, UniProt Q07812); assay: Liposomal permeabilization (ANTS/DPX release) assay; type: biochemical; details: for IC50: 30 minutes
T2 construct: Human full-length (1-192) wild-type BAX (Q07812); made in house; host or cells: E. coli BL21 (DE3) CodonPlus (DE3)-RIPL
Procedure: Lipids (Avanti Polar Lipids) at the following ratio, phosphatidylcholine 48%, phosphatidylinositol 10%, dioleoyl phosphatidylserine 10%, phosphatidylethanolamine, 28%, and tetraoleoyl cardiolipin 4%, were mixed in a total of 1 mg, dried and resuspended in 10 mM HEPES, pH 7, 200 mM KCI, and 5 mM MgCl2 with 12.5 mM 8-aminonaphthalene-1,3,6-trisulfonic acid (ANTS) dye and 45 mM p-xylene-bis-pyridinium bromide (DPX) quencher (Molecular Probes) using a water bath sonicator. Liposomes were formed by extrusion of the suspension using Avanti Mini-Extruder (Cat # 610000) with polycarbonate membranes of 0.1 µm pore size (Avanti Polar Lipids). ANTS/DPX encapsulated liposomes were purified from non-encapsulated ANTS/DPX by gel filtration of a 10 mL CL2B-Sepharose (GE Healthcare Life Sciences) gravity-flow column. BAX (50-250 nM) was combined with tBID, BIM, and EO at the indicated concentrations to a volume of 90 µL. Reactions were initiated by the addition of […] of the encapsulated ANTS/DPX liposome stock. ANTS/DPX release was quantified based on the increase in fluorescence intensity that occurs when the ANTS fluorophore is separated from the DPX quencher upon release from the liposomes into solution. Fluorescence (λex = 355 nm and λem = 520 nm) was measured at 1 minute intervals at room temperature (22-25° C.) indicated using a Tecan Infinite M1000 plate reader. In the case of heat activation, reactions were set up as described in the absence of tBID or BIM, and experiments were recorded at 42° C. The percentage release of ANTS/DPX at any given time point was calculated as percentage release=((F-F0)/(F100-F0))(100), where F0 and F100 are baseline and maximal fluorescence, respectively. Triton X-100 (1%) was used to determine the maximum amount of liposomal release per assay and was set to 100%.
Next, EO’s capacity to modulate BAX activity was evaluated using liposomal release assays. […] Instead, EO was able to inhibit both tBID- and BIM BH3-mediated BAX activation (FIGS. 1E, 1F, and 1G). Inhibition of tBID-mediated BAX activation by EO was inversely proportional to the concentration of the tBID activator, consistent with competitive inhibition of BH3-activator binding.

BAK KO (BAK-/-) MEFs = assay: Cytochrome c release assay (ELISA), BAK KO MEFs; type: cell-based, mouse; parameters: dose or concentration left out as unconfirmed; details: BIM-BH3 peptide, EO pretreatment 2 hours
Procedure: BAX^-/^- or BAK^-/^- mouse embryonic fibroblasts were maintained in DMEM (Life Technologies) supplemented with 10% FBS, 100 U/mL penicillin/streptomycin, 2 mM I-glutamine, and 0.1 mM MEM nonessential amino acids. MEFs (5×10^4 cells/well) were seeded in a 96 well clear u-bottom plate for 18-24 hr. Media was removed and replaced with media lacking FBS, and cells were treated with varying doses of EO for 2 hours at 37° C. […] Cytochrome c release was determined by decanting 50 µL of the supernatant and analyzing with the rat/mouse cytochrome c quantikine ELISA kit (R&D Systems, MCTO) according to the recommended protocol. […]
It is important to note that THPO-receptor agonist activity of EO is highly specific to the human and chimpanzee THPO-receptors, making mouse cell lines ideal for studying EO modulation of BAX-dependent activity independent of THPO-mediated effects (Erickson-Miller, C. L. et al. Stem Cells 27, 424-430 (2009)). First, mitochondrial cytochrome c release, a hallmark of BAX activation and BAX-dependent apoptosis, was evaluated. […] Next, mitochondrial translocation of cytosolic BAX upon treatment with either BIM BH3 or staurosporine (STS) in BAK KO MEFs was evaluated.

T2 sequence (Q07812 whole entry): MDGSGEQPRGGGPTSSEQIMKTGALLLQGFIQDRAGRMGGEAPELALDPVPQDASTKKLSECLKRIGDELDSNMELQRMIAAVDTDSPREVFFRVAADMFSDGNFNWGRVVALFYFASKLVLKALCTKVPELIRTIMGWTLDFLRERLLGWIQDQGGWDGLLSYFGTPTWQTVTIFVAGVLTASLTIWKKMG
T1 sequence (Q07812 whole entry R134E): as the sequence (Q07812 whole entry) above, with R134E counted along it

`CC1=NN(c2ccc(C)c(C)c2)C(=O)/C1=N\Nc1cccc(-c2cccc(C(=O)O)c2)c1O` [EO, eltrombopag] was tested, and the cell viability (3T3 cells) was “dose-dependent rescue of cell viability”, the “inhibition of liposomal release versus BAX WT” value (BAX R134E) was “slight trend towards weaker inhibition” and the IC50 (BAX; 50 nM BAX and 5 nM tBID, read-out: tBID IC50, inhibition of BAX activity in liposomal release) was 2.4 µM. For the same compound, the IC50 (BAX; 50 nM BAX, read-out: BIM IC50, inhibition of BAX activity in liposomal release) was 4.7 µM, the IC50 (BAX; 250 nM BAX at 42° C., read-out: heat IC50, inhibition of BAX activity in liposomal release) was 4.5 µM and the “ability to activate BAX in liposomal release assay” value (BAX; concentrations up to 10 µM, no activator) was “no ability to activate BAX”. The “BIM-BH3 induced release of cytochrome c” value (BAK KO (BAK-/-) MEFs) was “significantly inhibited”.
